Reference: ChEMBL document CHEMBL1144445, “Design, synthesis and antiviral activity of novel 4,5-disubstituted 7-(beta-D-ribofuranosyl)pyrrolo[2,3-d][1,2,3]triazines and the novel 3-amino-5-methyl-1-(beta-D-ribofuranosyl)- and 3-amino-5-methyl-1-(2-deoxy-beta-D-ribofuranosyl)-1,5-dihydro-1,4,5,6,7,8-hexaazaacenaphthylene as analogues of …” (J Med Chem, 2005)

Tests used:
Human betaherpesvirus 5 [1] = assay: Inhibitory concentration against human cytomegalovirus using plaque assay; format: functional, organism-based
KB = assay: Inhibitory concentration was determined for KB cell growth; format: functional, cell-based; conditions: Homo sapiens
HFF = assay: Visual cytotoxicity was determined in uninfected HFF cells using plaque assay; format: functional, cell-based; conditions: Homo sapiens
Human alphaherpesvirus 1 = assay: Inhibitory concentration against human herpes simplex virus type 1 using ELISA test; format: functional, organism-based
[2] = test system: Human immunodeficiency virus 1; assay: Inhibitory concentration against human immunodeficiency virus type 1; format: functional, organism-based
Human betaherpesvirus 5 [3] = assay: Inhibitory concentration against human cytomegalovirus using yield-reduction assay; format: functional

Cc1ccc(C(=O)OC[C@H]2O[C@@H](n3cc(C(N)=O)c(C(N)=O)c3N)C[C@@H]2OC(=O)c2ccc(C)cc2)cc1
IC50 (Human betaherpesvirus 5 [1]): 12 µM
IC50 (KB): 100 µM
IC50 (HFF): 32 µM
IC50 (Human alphaherpesvirus 1): > 100 µM

N#C/N=C(\N)c1cn([C@@H]2O[C@H](CO)[C@@H](O)[C@H]2O)c2nnnc(N)c12
IC50 (Human betaherpesvirus 5 [1]): > 100 µM
IC50 (KB): 5 µM
IC50 (HFF): > 100 µM
IC50 (Human alphaherpesvirus 1): > 100 µM

NC(=S)c1cn([C@@H]2O[C@H](CO)[C@@H](O)[C@H]2O)c2nnnc(N)c12
IC50 (Human betaherpesvirus 5 [1]): 8.5 µM
IC50 (KB): 2 µM
IC50 (HFF): 32 µM
IC50 (Human alphaherpesvirus 1): 40 µM

CCOC(=O)c1cn([C@@H]2O[C@H](CO)[C@@H](O)[C@H]2O)c2nnnc(N)c12
IC50 (Human betaherpesvirus 5 [1]): > 100 µM
IC50 (KB): 80 µM
IC50 (HFF): > 100 µM
IC50 (Human alphaherpesvirus 1): > 100 µM

NC(=O)c1cn([C@@H]2O[C@H](COC(=O)c3ccccc3)[C@@H](OC(=O)c3ccccc3)[C@H]2OC(=O)c2ccccc2)c(N)c1C(N)=O
IC50 (Human betaherpesvirus 5 [1]): > 10 µM
IC50 (KB): > 10 µM
IC50 (HFF): > 10 µM
IC50 (Human alphaherpesvirus 1): > 10 µM

Cc1ccc(C(=O)OC[C@H]2O[C@@H](n3cc(C(N)=O)c(C(N)=O)c3[N+](=O)[O-])C[C@@H]2OC(=O)c2ccc(C)cc2)cc1
IC50 (Human betaherpesvirus 5 [1]): 32 µM
IC50 (HFF): 32 µM
IC50 (Human alphaherpesvirus 1): > 100 µM

NC(=O)c1cn([C@@H]2O[C@H](COC(=O)c3ccccc3)[C@@H](OC(=O)c3ccccc3)[C@H]2OC(=O)c2ccccc2)c2nnnc(O)c12
IC50 (Human betaherpesvirus 5 [1]): > 10 µM
IC50 (KB): > 10 µM
IC50 (HFF): > 10 µM
IC50 (Human alphaherpesvirus 1): > 10 µM

COC(=N)c1cn([C@@H]2O[C@H](CO)[C@@H](O)[C@H]2O)c2nnnc(N)c12
IC50 (Human betaherpesvirus 5 [1]): 32 µM
IC50 (KB): 20 µM
IC50 (HFF): 21 µM
IC50 (Human alphaherpesvirus 1): > 100 µM

CN1N=C(N)c2cn([C@@H]3O[C@H](CO)[C@@H](O)[C@H]3O)c3nnnc1c23
IC50 (Human betaherpesvirus 5 [1]): 14 µM
IC50 [2]: 600 nM
IC50 (KB): 2.5 µM
IC50 (HFF): 10 µM
IC50 (Human alphaherpesvirus 1): > 100 µM

CN(N)c1nnnc2c1c(C#N)cn2[C@@H]1O[C@H](COC(=O)c2ccccc2)[C@@H](OC(=O)c2ccccc2)[C@H]1OC(=O)c1ccccc1
IC50 (Human betaherpesvirus 5 [1]): > 10 µM
IC50 (KB): > 10 µM
IC50 (HFF): > 10 µM
IC50 (Human alphaherpesvirus 1): > 10 µM

N=C(NN)c1cn([C@@H]2O[C@H](CO)[C@@H](O)[C@H]2O)c2nnnc(N)c12
IC90 (Human betaherpesvirus 5 [3]): 1000 nM
IC50 (Human betaherpesvirus 5 [1]): 32 µM
IC50 (KB): 3 µM
IC50 (HFF): 32 µM
IC50 (Human alphaherpesvirus 1): 80 µM

N/C(=N\O)c1cn([C@@H]2O[C@H](CO)[C@@H](O)[C@H]2O)c2nnnc(N)c12
IC50 (Human betaherpesvirus 5 [1]): < 2 µM
IC50 (KB): 1.5 µM
IC50 (HFF): 6.6 µM
IC50 (Human alphaherpesvirus 1): 0.9 µM

NC(=O)c1cn([C@@H]2O[C@H](CO)[C@@H](O)[C@H]2O)c2nnnc(N)c12
IC90 (Human betaherpesvirus 5 [3]): 400 nM
IC50 (Human betaherpesvirus 5 [1]): 0.3 µM
IC50 (KB): 0.08 µM
IC50 (HFF): 0.3 µM
IC50 (Human alphaherpesvirus 1): 2.5 µM

N#Cc1cn([C@@H]2O[C@H](COC(=O)c3ccccc3)[C@@H](OC(=O)c3ccccc3)[C@H]2OC(=O)c2ccccc2)c2nnnc(-n3cncn3)c12
IC50 (Human betaherpesvirus 5 [1]): > 10 µM
IC50 (KB): > 10 µM
IC50 (HFF): > 10 µM
IC50 (Human alphaherpesvirus 1): > 10 µM
